{"source": "patent US20080213863A1", "about": "“Method of Controlling Viral Outbreak” (priority 2003, published 2008)", "key": {"HIV-1 [1]": {"tested_on": "HIV-1", "assay": "Infection of primary cells and cell lines by HIV-1 strains", "format": "cell-based", "conditions": "primary cells and cell lines treated"}, "[2]": {"tested_on": "CD4+ HIV-susceptible target cells", "assay": "Depletion of total cellular cholesterol by 2-OH-β-CD treatment", "format": "cell-based", "conditions": "10 to 20 mM for 1 hour at 37° C., then washing"}, "HIV-1 [3]": {"tested_on": "HIV-1", "assay": "HIV-1-mediated syncytium formation", "format": "cell-based", "conditions": "treatment of target cells"}, "LFA-1": {"tested_on": "LFA-1", "assay": "SDF-1-induced binding of cells to ICAM-1 through LFA-1", "format": "cell-based", "conditions": "cholesterol-depleted cells", "source_text": "(§1) As described above, budding of HIV-1 particles occurs at lipid rafts, which are characterized by a distinct lipid composition that includes high concentrations of cholesterol, sphingolipids, and glycolipids. Since cholesterol plays a key role in the entry of some other viruses, the role in HIV-1 entry of cholesterol and lipid rafts in the plasma membrane of susceptible cells was investigated. […] A β-CD derivative, 2-hydroxypropyl-β-cyclodextrin (2-OH-β-CD), was used to deplete cellular cholesterol and disperse lipid rafts. As disclosed herein, removal of cellular cholesterol rendered primary cells and cell lines highly resistant to HIV-1-mediated syncytium formation and to infection by both CXCR4- and CCR5-specific strains of HIV-1 virus. […] Cholesterol depletion also made cells resistant to SDF-1-induced binding to ICAM-1 through LFA-1."}, "HIV-1 [4]": {"tested_on": "HIV-1", "assay": "HIV-1 binding to cells", "format": "cell-based", "conditions": "treatment of the virus or cells", "source_text": "as §1"}, "HIV-1 [5]": {"tested_on": "HIV-1", "assay": "Capture of HIV-1 by MAbs against host and viral proteins, measured as percentage of total p24", "format": "cell-based", "source_text": "By removing cholesterol, 2-OH-β-CD is believed to partially perturb organized lipid rafts, resulting in dispersal of their components (Ilangumaran and Hoessli, Biochem. J. 335:433-440, 1998)."}, "CD4; chemokine receptors": {"tested_on": "CD4; chemokine receptors", "assay": "CD4 expression and antibody-mediated internalization of chemokine receptors", "format": "cell-based", "conditions": "treatment of the virus or cells"}, "[6]": {"conditions": "after treating cells, percentage of total p24"}}}
{"substance": "2-hydroxypropyl-β-cyclodextrin [2-OH-β-CD]", "values": [{"measurement": "infection by CXCR4-specific and CCR5-specific HIV-1 strains", "setting": "HIV-1 [1]", "result": "rendered resistant"}, {"measurement": "depletion of total cellular cholesterol", "setting": "[2]", "result": "greater than 70%"}, {"measurement": "cell growth after treatment", "setting": "treated cells", "result": "continued to grow normally"}, {"measurement": "syncytium formation of primary cells and cell lines", "setting": "HIV-1 [3]", "result": "blocked syncytium formation"}, {"measurement": "SDF-1-induced binding to ICAM-1 through LFA-1", "setting": "LFA-1", "result": "resistant"}, {"measurement": "Ca2+ flux responses to anti-CD3 MAb", "setting": "Jurkat cells", "result": "still showed Ca^2+ flux responses"}, {"measurement": "HIV-1 binding", "setting": "HIV-1 [4]", "result": "partially reduced"}, {"measurement": "CD45 capture of HIV-1", "setting": "HIV-1 [5]; after treating cells", "result": "remained unaffected"}, {"measurement": "capture of HIV-1 by MAb against CD59", "setting": "HIV-1 [5]; [6]", "result": "decreased substantially"}, {"measurement": "capture of HIV-1 by MAb against gp41", "setting": "HIV-1 [5]; [6]", "result": "decreased substantially"}, {"measurement": "overall cellular release of p24", "setting": "HIV-1 [5]; after treatment", "result": "increased"}, {"measurement": "CD4 expression", "setting": "CD4; chemokine receptors", "result": "no effect"}, {"measurement": "antibody-mediated internalization of chemokine receptors", "setting": "CD4; chemokine receptors", "result": "highly sensitive"}]}
